Results from the Kinase Knowledgebase extract (Sharma et al. 2016).

target: PIK3CA (human) (UniProt P42336); assay: Inhibition of PIK3CA Kinase Activity
Sequence (P42336 whole entry, looked up): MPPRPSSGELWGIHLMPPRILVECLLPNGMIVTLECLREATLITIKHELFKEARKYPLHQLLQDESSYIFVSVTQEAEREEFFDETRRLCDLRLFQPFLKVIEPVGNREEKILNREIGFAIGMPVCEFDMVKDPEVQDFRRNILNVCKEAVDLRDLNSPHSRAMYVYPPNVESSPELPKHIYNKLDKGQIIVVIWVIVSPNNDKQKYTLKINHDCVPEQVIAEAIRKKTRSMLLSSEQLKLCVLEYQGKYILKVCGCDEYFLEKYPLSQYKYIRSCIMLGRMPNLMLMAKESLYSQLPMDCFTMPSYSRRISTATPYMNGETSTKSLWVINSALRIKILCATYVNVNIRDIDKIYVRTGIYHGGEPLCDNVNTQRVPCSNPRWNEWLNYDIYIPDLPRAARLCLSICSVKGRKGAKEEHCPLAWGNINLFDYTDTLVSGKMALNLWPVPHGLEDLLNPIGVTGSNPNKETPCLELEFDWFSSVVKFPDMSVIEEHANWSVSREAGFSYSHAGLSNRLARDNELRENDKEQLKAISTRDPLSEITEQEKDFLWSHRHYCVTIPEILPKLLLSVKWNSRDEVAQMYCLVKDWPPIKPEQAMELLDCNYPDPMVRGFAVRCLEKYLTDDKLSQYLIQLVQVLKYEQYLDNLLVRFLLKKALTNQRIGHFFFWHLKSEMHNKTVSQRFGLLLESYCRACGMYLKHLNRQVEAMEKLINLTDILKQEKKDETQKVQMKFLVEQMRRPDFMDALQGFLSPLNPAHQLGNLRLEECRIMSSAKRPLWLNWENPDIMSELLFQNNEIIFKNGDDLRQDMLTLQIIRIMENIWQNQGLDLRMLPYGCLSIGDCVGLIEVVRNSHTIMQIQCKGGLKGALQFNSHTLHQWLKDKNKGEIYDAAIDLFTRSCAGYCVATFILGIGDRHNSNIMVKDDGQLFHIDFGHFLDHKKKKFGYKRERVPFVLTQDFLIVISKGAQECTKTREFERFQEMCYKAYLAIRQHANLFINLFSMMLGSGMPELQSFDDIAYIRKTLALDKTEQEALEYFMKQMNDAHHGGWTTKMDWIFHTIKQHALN

IC50	Compound
10 to 50 nM	CCC1CCc2nc(C)nc(N3CCOc4ccc(-c5cnc6nc(C)[nH]c6c5)cc4C3)c2C1 (configuration not stated)
≤ 10 nM	Cc1nc2ncc(-c3ccc4c(c3)CN(c3nc(CN(C)C)nc(C)c3CC3CC3)CCO4)cc2[nH]1
50 to 250 nM	CCNc1nc2ccc(-c3ccc4c(c3)CN(c3cc(Nc5ccccc5)ncn3)CCO4)cc2[nH]1
10 to 50 nM	CNc1ncc(-c2ccc3c(c2)CN(c2ncnc4c2CC(C)(C)CC4)CCO3)cc1S(=O)(=O)NCCO
10 to 50 nM	COc1c(OCc2ccccc2)ccc2c(N3CCOc4ccc(-c5ccc6nc(C)[nH]c6c5)cc4C3)ncnc12
250 to 1000 nM	COCCOc1ccc2ncnc(N3CCOc4ccc(-c5ccc6nc(C)[nH]c6c5)cc4C3)c2c1
50 to 250 nM	CC(=O)OCc1nc(C)c(C(C)C)c(N2CCOc3ccc(-c4ccc5nc(C)[nH]c5c4)cc3C2)n1
10 to 50 nM	Cc1nc2ccc(-c3ccc4c(c3)CN(c3ccnc(C)c3Cc3ccccc3)CCO4)cc2[nH]1
≤ 10 nM	CN(C)Cc1nc2c(c(N3CCOc4ccc(-c5cnc6nc(C7CC7)[nH]c6c5)cc4C3)n1)CC(C)(C)CC2
250 to 1000 nM	CCc1c(C(C)C)ncnc1N1CCOc2ccc(-c3ccc4nc(C)[nH]c4c3)cc2C1
250 to 1000 nM	COCc1nc2ccc(-c3ccc4c(c3)CN(c3ccnc5ccccc35)CCO4)cc2[nH]1
≤ 10 nM	Nc1nc2ncc(-c3ccc4c(c3)CN(c3ncnc5ccc(Br)cc35)CCO4)cc2[nH]1
250 to 1000 nM	CN(C)Cc1nc2c(c(N3CCOc4ccc(-c5ccc6scnc6c5)cc4C3)n1)CC(C)(C)CC2
50 to 250 nM	Cc1ncnc(N2CCOc3ccc(-c4ccc5[nH]nc(N)c5c4)cc3C2)c1Cc1ccc(F)cc1
≤ 10 nM	CC[C@H]1CCc2c(ncnc2N2CCOc3ccc(-c4cnc5nc(N)[nH]c5c4)cc3C2)C1
50 to 250 nM	Cc1nc2ncc(-c3ccc4c(c3)CN(c3ncnc(N5CCC5)c3C)CCO4)cc2[nH]1
50 to 250 nM	CCOC(=O)Nc1nc2ncc(-c3ccc4c(c3)CN(c3ncnc5c3CC(C)(C)CC5)CCO4)cc2[nH]1
250 to 1000 nM	Cc1nc2ccc(-c3ccc4c(c3)CN(c3ncnc5scc(C)c35)CCO4)cc2[nH]1
50 to 250 nM	CC1(C)CCc2ncnc(N3CCOc4ccc(-c5cnc(N)c(S(=O)(=O)N6C[C@H]7C[C@@H]6CN7)c5)cc4C3)c2C1
10 to 50 nM	CC[C@@H](C)NCc1nc2c(c(N3CCOc4ccc(-c5cnc6nc(C)[nH]c6c5)cc4C3)n1)CC(C)(C)CC2
50 to 250 nM	CC(C)(O)CC[S+]([O-])c1cc(-c2ccc3c(c2)CN(c2ncnc4c2CC(C)(C)CC4)CCO3)cnc1N (configuration not stated)
50 to 250 nM	Cc1nc2ccc(-c3ccc4c(c3)CN(c3ncnc(C)c3Cc3ccccc3C)CCO4)cc2[nH]1

IC50	Compound
≤ 10 nM	CN(C)Cc1nc2c(c(N3CCOc4ccc(-c5cnc6sc(N)nc6c5)cc4C3)n1)CC(C)(C)CC2
10 to 50 nM	CC(O)CNS(=O)(=O)c1cc(-c2ccc3c(c2)CN(c2ncnc4c2CC(C)(C)CC4)CCO3)cnc1N (configuration not stated)
250 to 1000 nM	COc1cc2c(N3CCOc4ccc(-c5ccc6nc(C)[nH]c6c5)cc4C3)ncnc2cc1Br
50 to 250 nM	Cc1ncnc(N2CCOc3ccc(-c4ccc(C(=O)NCC(F)F)cc4)cc3C2)c1Cc1ccc(F)cc1
≤ 10 nM	CC1(C)CCc2ncnc(N3CCOc4ccc(-c5cnc(N)c(S(=O)(=O)NCCO)c5)cc4C3)c2C1
250 to 1000 nM	Cc1ncnc(N2CCOc3ccc(-c4cnc(N)cn4)cc3C2)c1Cc1ccc(F)cc1
10 to 50 nM	Cc1nc2ccc(-c3ccc4c(c3)CN(c3ncnc(C)c3Cc3cccc(Cl)c3)CCO4)cc2[nH]1
50 to 250 nM	CC1(C)CCc2ncnc(N3CCOc4ccc(-c5cnc(N)c(S(=O)(=O)O)c5)cc4C3)c2C1
50 to 250 nM	CCc1nc2ccc(-c3ccc4c(c3)CN(c3ncnc5c3CC(C)(C)CC5)CCO4)cc2[nH]1
50 to 250 nM	Cc1ccc(Cc2c(C)ncnc2N2CCOc3ccc(-c4ccc5nc(C)[nH]c5c4)cc3C2)cc1
250 to 1000 nM	CN(C)C(=O)c1cc(-c2ccc3c(c2)CN(c2ncnc4c2CC(C)(C)CC4)CCO3)cnc1N
10 to 50 nM	COc1cccc2c(N3CCOc4ccc(-c5ccc6nc(C)[nH]c6c5)cc4C3)ncnc12
≤ 10 nM	Cc1nc(CN(C)C)nc(N2CCOc3ccc(-c4cnc5sc(N)nc5c4)cc3C2)c1C(C)C
50 to 250 nM	COc1ccc(-c2ccc3c(c2)CN(c2nc(CN(C)C)nc4c2CC(C)(C)CC4)CCO3)cn1
50 to 250 nM	Cc1nc2ccc(-c3ccc4c(c3)CN(c3ncnc5ccc(Br)cc35)CCO4)cc2[nH]1
10 to 50 nM	Cc1nc(CN(C)C)nc(N2CCOc3ccc(-c4cnc5sc(N)nc5c4)cc3C2)c1Br
250 to 1000 nM	CC1(C)CCc2ncnc(N3CCOc4ccc(-c5cnc(N)nc5)cc4C3)c2C1
250 to 1000 nM	Cc1nc2ccc(-c3ccc4c(c3)CN(c3ncnc5sccc35)CCO4)cc2[nH]1
10 to 50 nM	CC1(C)CCc2ncnc(N3CCOc4ccc(-c5ccc6nc(NCCF)[nH]c6c5)cc4C3)c2C1
10 to 50 nM	CCc1nc2ncc(-c3ccc4c(c3)CN(c3nc(C)nc5c3CC(C)(C)CC5)CCO4)cc2[nH]1
50 to 250 nM	Cc1nc2ccc(-c3ccc4c(c3)CN(c3ccnc5cc(C#N)ccc35)CCO4)cc2[nH]1
10 to 50 nM	COC(=O)Nc1nc2ccc(-c3ccc4c(c3)CN(c3ncnc5c3CC(C)(C)CC5)CCO4)cc2[nH]1

IC50	Compound
50 to 250 nM	CN1C[C@@H]2C[C@H]1CN2S(=O)(=O)c1cc(-c2ccc3c(c2)CN(c2ncnc4c2CC(C)(C)CC4)CCO3)cnc1N
250 to 1000 nM	CN(c1cc(-c2ccc3c(c2)CN(c2ncnc4c2CC(C)(C)CC4)CCO3)cnc1Cl)S(C)(=O)=O
≤ 10 nM	Cc1nc(CN(C)C)nc(N2CCOc3ccc(-c4ccc5[nH]c(C(F)F)nc5c4)cc3C2)c1Cc1ccc(F)cc1
250 to 1000 nM	CN(C)c1nc2ccc(-c3ccc4c(c3)CN(c3ccnc5ccccc35)CCO4)cc2[nH]1
10 to 50 nM	C=C[C@H]1CCCc2c(ncnc2N2CCOc3ccc(-c4cnc5nc(C)[nH]c5c4)cc3C2)C1
50 to 250 nM	CC(C)(N)CNS(=O)(=O)c1cc(-c2ccc3c(c2)CN(c2ncnc4c2CC(C)(C)CC4)CCO3)cnc1N
50 to 250 nM	CC1(C)CCc2ncnc(N3CCOc4ccc(-c5cnc(O)c(S(=O)(=O)N6CC[C@H](N)C6)c5)cc4C3)c2C1
50 to 250 nM	CC1(C)CCc2ncnc(N3CCOc4ccc(-c5cnc(N)c(S(=O)(=O)NCC6CCCCN6)c5)cc4C3)c2C1 (configuration not stated)
≤ 10 nM	Cc1nc2ncc(-c3ccc4c(c3)CN(c3nc(CNS(C)(=O)=O)nc5c3CC(C)(C)CC5)CCO4)cc2[nH]1
10 to 50 nM	Cc1nc2cc(-c3ccc4c(c3)CN(c3nc(C5CCCN5)nc5c3CC(C)(C)CC5)CCO4)cnc2[nH]1 (configuration not stated)
10 to 50 nM	Cc1nc2ccc(-c3ccc4c(c3)CN(c3nc(CN(C)C)nc(C)c3C)CCO4)cc2[nH]1
≤ 10 nM	CC1(C)CCc2nc(CO)nc(N3CCOc4ccc(-c5cnc6sc(N)nc6c5)cc4C3)c2C1
10 to 50 nM	CC1(C)CCc2ncnc(N3CCOc4ccc(-c5cnc(N)c(S(=O)(=O)N[C@H]6CC[C@H](N)CC6)c5)cc4C3)c2C1
≤ 10 nM	CCNc1nc2ncc(-c3ccc4c(c3)CN(c3ncnc5c3CC(C)(C)CC5)CCO4)cc2[nH]1
≤ 10 nM	CCC1CCc2ncnc(N3CCOc4ccc(-c5cnc6nc(N)[nH]c6c5)cc4C3)c2C1 (configuration not stated)
50 to 250 nM	Cc1nc2c(C)cc(-c3ccc4c(c3)CN(c3ncnc5cccnc35)CCO4)cc2[nH]1
10 to 50 nM	CC1(C)CCc2ncnc(N3CCOc4ccc(-c5cnc(N)c(S(=O)(=O)NCC6CCCNC6)c5)cc4C3)c2C1 (configuration not stated)
10 to 50 nM	COCCNCc1nc2c(c(N3CCOc4ccc(-c5cnc6nc(C)[nH]c6c5)cc4C3)n1)CC(C)(C)CC2
≤ 10 nM	CC1(C)CCc2ncnc(N3CCOc4ccc(-c5cnc6nc(N)[nH]c6c5)cc4C3)c2C1
10 to 50 nM	CC1(C)CCc2nc(CC#N)nc(N3CCOc4ccc(-c5cnc6sc(N)nc6c5)cc4C3)c2C1
10 to 50 nM	Cc1nc2ncc(-c3ccc4c(c3)CN(c3nc(CNCC(F)F)nc5c3CC(C)(C)CC5)CCO4)cc2[nH]1
50 to 250 nM	Cc1nc2ccc(-c3ccc4c(c3)CN(c3nccc5ccccc35)CCO4)cc2[nH]1

IC50	Compound
250 to 1000 nM	Cn1ccc2cc(-c3ccc4c(c3)CN(c3ccnc5ccccc35)CCO4)cnc21
250 to 1000 nM	COc1ccc2c(N3CCOc4ccc(-c5ccc6[nH]ncc6c5)cc4C3)nc(C)nc2c1
≤ 10 nM	Cc1nc(CN(C)C)nc(N2CCOc3ccc(-c4ccc5[nH]c(CF)nc5c4)cc3C2)c1Cc1ccc(F)cc1
10 to 50 nM	COC(=O)Nc1nc2ccc(-c3ccc4c(c3)CN(c3ncnc5ccc(OC)cc35)CCO4)cc2[nH]1
50 to 250 nM	Cc1nc2ccc(-c3ccc4c(c3)CN(c3ncnc5c(Br)cccc35)CCO4)cc2[nH]1
250 to 1000 nM	CC(C)Nc1nc2ccc(-c3ccc4c(c3)CN(c3ccnc5ccccc35)CCO4)cc2[nH]1
50 to 250 nM	COc1ccc2c(N3CCOc4ccc(-c5cnc6[nH]ccc6c5)cc4C3)nc(C)nc2c1
250 to 1000 nM	COc1c(OCc2ccc3ccccc3n2)ccc2c(N3CCOc4ccc(-c5ccc6nc(C)[nH]c6c5)cc4C3)ncnc12
250 to 1000 nM	COc1ccc2c(N3CCOc4ccc(-c5ccc6[nH]c(=O)[nH]c6c5)cc4C3)nc(C)nc2c1
10 to 50 nM	Cc1nc2ccc(-c3ccc4c(c3)CN(c3nc(CN(C)C)nc(C)c3CC3CC3)CCO4)cc2[nH]1
250 to 1000 nM	COC(=O)Nc1nc2ccc(-c3ccc4c(c3)CN(c3ccnc5ccccc35)CCO4)cc2n1C
50 to 250 nM	CC(O)c1nc2cc(-c3ccc4c(c3)CN(c3ncnc5c3CC(C)(C)CC5)CCO4)cnc2[nH]1 (configuration not stated)
250 to 1000 nM	COc1cc2c(N3CCOc4ccc(-c5ccc6nc(C)[nH]c6c5)cc4C3)ncnc2cc1OCc1ccccc1
10 to 50 nM	COCCNS(=O)(=O)c1cc(-c2ccc3c(c2)CN(c2ncnc4c2CC(C)(C)CC4)CCO3)cnc1N
10 to 50 nM	COC(=O)Nc1nc2ncc(-c3ccc4c(c3)CN(c3ccnc5cc(OC)c(OC)cc35)CCO4)cc2[nH]1
250 to 1000 nM	c1cc(N2CCOc3ccc(-c4cnc5nc[nH]c5c4)cc3C2)ncn1
10 to 50 nM	COc1ccc2c(N3CCOc4ccc(-c5cnc(NC(C)=O)s5)cc4C3)nc(C)nc2c1
50 to 250 nM	Cc1nc2ccc(-c3ccc4c(c3)CN(c3ncnc5ccc(F)cc35)CCO4)cc2[nH]1
10 to 50 nM	Cc1nc2c(F)c(-c3ccc4c(c3)CN(c3nc(CN(C)C)nc5c3CC(C)(C)CC5)CCO4)ccc2[nH]1
10 to 50 nM	Cc1nc2ncc(-c3ccc4c(c3)CN(c3nc(CNC5CCCC5)nc5c3CC(C)(C)CC5)CCO4)cc2[nH]1
10 to 50 nM	CC1(C)CCc2ncnc(N3CCOc4ccc(-c5cnc(N)c(S(=O)(=O)NCC(O)CO)c5)cc4C3)c2C1 (configuration not stated)
